Measurements from US20100197787A1, “Composition for Prevention of Hypoglycemic Condition” (priority 2005, published 2010).

What was measured:
rat brain cells [1] = experiment: Promoting activity of orally administered branched amino acid in incorporation of carbohydrate into the brain (2DG-6P amount); assay type: in vivo; conditions: 1 hour after oral administration of suspension, 0.45 g/15 mL/kg BW, male Wistar rats, versus control group (physiological saline), FIG. 1
Experimental: Leucine group: An L-leucine suspension prepared by adding 3 g L-leucine to 100 mL physiological saline and suspending it with a homogenizer was used as a test solution of leucine group. Isoleucine group: An L-isoleucine suspension prepared by adding 3 g L-isoleucine to 100 mL physiological saline and suspending it with a homogenizer was used as a test solution of isoleucine group. Male 6-week-old Wistar rats (Charles River Japan, Inc.) were kept for 14 days and given free access to food (purified feed: AIN-93G manufactured by Nippon Nosan Kogyo Co., Ltd.) and water. At the age of 8-week-old, the rats were grouped depending on the body weight into 3 groups (control group, leucine group and isoleucine group). After the grouping, under ether anesthesia, the cervical region of each rat was opened, and a catheter was inserted into the jugular vein. The other end of the catheter was passed subcutaneously, exposed on the back and connected via a harness to, and fixed to, a swivel. Then each rat was housed in a separate metabolism cage. Physiological saline was administered via the catheter continuously at a rate of 1 mL/hr/body to the rat. […] 20 μL of the plasma was placed in a vial for liquid scintillation counter measurement, and then 5 mL scintillator was added to and mixed with the plasma, which was then measured for its tritium level (count) with a liquid scintillation counter to determine the amount of 2DG. The blood glucose level was measured by a glucose oxidase dye method. […] 900 μL of the separated supernatant was placed in a vial for liquid scintillation counter measurement, and then 5 mL scintillator was added to and mixed with the supernatant, which was then measured for its tritium level (count) with a liquid scintillation counter to determine the amount of 2DG. […] 900 μL of the separated supernatant was placed in a vial for liquid scintillation counter measurement, and then 10 mL scintillator was added to and mixed with the supernatant, which was then measured for its tritium level (count) with a liquid scintillation counter to determine the amount of 2DG and 2DG-6P. […]

rat brain cells [2] = experiment: Promoting activity of intravenously administered BCAA in incorporation of carbohydrate into the brain (2DG-6P amount); assay type: in vivo; conditions: at 24 hours after intravenous administration, 1.5% by mass in 5% by mass glucose, 10 mL/kg/hr, male SD rats, versus control group (5% glucose) and mixed amino acid group, FIG. 2
Excerpt: Control group: A solution prepared by dissolving glucose at a concentration of 5% by mass in purified water was used as the test solution for the control group. Mixed amino acid group: A solution prepared by dissolving […] (registered trademark, manufactured by Otsuka Pharmaceutical Co., Ltd.) at a concentration of 1.5% by mass in purified water containing 5% by mass glucose was used as the test solution for the mixed amino acid group. Leucine group: A solution prepared by dissolving L-leucine at a concentration of 1.5% by mass in purified water containing 5% by mass glucose was used as the test solution for the leucine group. Isoleucine group: A solution prepared by dissolving L-isoleucine at a concentration of 1.5% by mass in purified water containing 5% by mass glucose was used as the test solution for the isoleucine group. Valine group: A solution prepared by dissolving L-valine at a concentration of 1.5% by mass in purified water containing 5% by mass glucose was used as the test solution for the valine group. Male […] SD rats (Nippon Clare) were kept for 14 days and given free access to food (purified feed: AIN-93G manufactured by Nippon Nosan Kogyo Co., Ltd.) and water. At the age of 8-week-old, the rats were grouped depending on the body weight into 5 groups (control group, mixed amino acid group, leucine group, isoleucine group and valine group). After the grouping, under ether anesthesia, the cervical region of each rat was opened, and a catheter was inserted into the jugular vein. The other end of the catheter was passed subcutaneously, exposed on the back and connected via a harness to, and fixed to, a swivel. Then each rat was housed in a separate metabolism cage. […] The separated plasma was measured for its 2DG level and blood glucose level in the same manner as in the test method in Test Example 1. […] After blood removal, the brain tissue was removed, mixed with 1N NaOH that was 4 parts of the brain tissue by weight, and then heated in a water bath at 60° C. for 1 hour to lyse the brain tissue. To the brain tissue lysate solution, 1N HCl in the same amount as that of 1N NaOH was added, thereby neutralizing the solution to give a neutralized homogenate of the brain tissue. The amount of 2DG-6P in the neutralized homogenate was measured in the same manner as in the test method in Test Example 1, to determine the amount of the carbohydrate incorporated into the brain cells. In statistical processing, after analysis of variance, Dunnett's multiple comparison with the control was carried out to test significant difference.

Compound | amount of the carbohydrate incorporated into brain cells (amount of 2DG-6P) (rat brain cells [1]) | amount of the carbohydrate incorporated into brain cells (amount of 2DG-6P) (rat brain cells [1]; listed as isoleucine) | amount of the carbohydrate incorporated into brain cells (amount of 2DG-6P) (rat brain cells [2]) | amount of the carbohydrate incorporated into brain cells (amount of 2DG-6P) (rat brain cells [2]; listed as isoleucine) | amount of the carbohydrate incorporated into brain cells (amount of 2DG-6P) (rat brain cells [2]; listed as valine)
CC[C@H](C)[C@H](N)C(=O)O [L-isoleucine] | higher than that of the control group | significantly promoted | higher than that of the control group and of the mixed amino acid group | tendency to promote incorporation of the carbohydrate into brain cells was recognized | –
CC(C)C[C@H](N)C(=O)O [L-leucine] | higher than that of the control group | – | higher than that of the control group and of the mixed amino acid group | – | –
CC(C)[C@H](N)C(=O)O [L-valine] | – | – | higher than that of the control group and of the mixed amino acid group | – | tendency to promote incorporation of the carbohydrate into brain cells was recognized
